# pIC50: −log10 of the molar value. Structures can show the parent of a compound that is named as a salt.
# How the values were obtained:
# human FGFR2 = molecular target: T1, human FGFR2 (Homo sapiens, UniProt P21802); assay: 33P isotope-labeled kinase activity test (Reaction Biology Corp), FGFR2; format: biochemical; conditions: 33P-ATP 5 μM, kinase 0.45 nM, 120 min room temperature
# T1 construct: purchased Invitrogen PV3368
# Experimental: (§1) The IC50 value was determined using ^33P isotope-labeled kinase activity test (Reaction Biology Corp) to evaluate the inhibitory ability of the compounds to be tested on human FGFR1, FGFR2 and VEGFR2.
# (§2) Buffer conditions: 20 mM Hepes (pH 7.5), 10 mM MgCl2, 1 mM EGTA, 0.02% Brij35, 0.02 mg/mL BSA, 0.1 mM Na3VO4, 2 mM DTT, 1% DMSO.
# (§3) Test steps: At room temperature, the compounds to be tested were dissolved in DMSO to prepare a 10 mM solution for use. The substrate was dissolved in the newly-prepared buffer, and the kinase to be tested was added thereto and mixed well. The DMSO solution in which the compounds to be tested were dissolved was added to the above-mentioned homogeneous reaction solution using acoustic technology (Echo 550). […] After incubating for 15 minutes, to the reaction solution was added ^33P-ATP (activity: 0.01 μCi/μL, with corresponding concentration listed in Table 10) to start the reaction. […] The kinase activity data was expressed by comparing the kinase activity of the groups containing the compounds to be tested with that of the blank group (containing only DMSO). The IC50 value was obtained by curve fitting using Prism4 software (GraphPad), and the experimental results were shown in Table 11.
# [1] = tested on: human gastric cancer SNU-16 cells expressing FGFR2; assay: Cell activity (proliferation) test of gastric cancer cell line SNU-16, CellTiter-Glo; format: cell-based; conditions: inhibition of proliferation
# Experimental: To test the inhibitory effect of the compounds on the proliferation of human gastric cancer SNU-16 cells expressing FGFR2.
# The compounds used in the test were subjected to 3-fold concentration dilution, the concentration starting from 10 μM and subjected to […], resulting in 9 concentrations: 10 μM, 2.50 μM, 0.62 μM, 0.156 μM, 39.1 nM, 9.8 nM, 2.4 nM, 0.61 nM, and 0.15 nM.
# (1) Promega CellTiter-Glo luminescent cell viability assay kit (Promega-G7573).
# (2) 2104 EnVision multi-tag reader, PerkinElmer.
# The inhibition rate of different doses of the compounds would be calculated in the Excel file, and the IC50 data was obtained by parametric curve fitting (GraphPad Software).
# human VEGFR2 = molecular target: T2, human VEGFR2 (Homo sapiens, UniProt P35968); assay: 33P isotope-labeled kinase activity test (Reaction Biology Corp), VEGFR2; format: biochemical; conditions: 33P-ATP 20 μM, kinase 1 nM, 120 min room temperature
# T2 construct: purchased Invitrogen PR5992C
# T2 sequence (P35968 20-1356): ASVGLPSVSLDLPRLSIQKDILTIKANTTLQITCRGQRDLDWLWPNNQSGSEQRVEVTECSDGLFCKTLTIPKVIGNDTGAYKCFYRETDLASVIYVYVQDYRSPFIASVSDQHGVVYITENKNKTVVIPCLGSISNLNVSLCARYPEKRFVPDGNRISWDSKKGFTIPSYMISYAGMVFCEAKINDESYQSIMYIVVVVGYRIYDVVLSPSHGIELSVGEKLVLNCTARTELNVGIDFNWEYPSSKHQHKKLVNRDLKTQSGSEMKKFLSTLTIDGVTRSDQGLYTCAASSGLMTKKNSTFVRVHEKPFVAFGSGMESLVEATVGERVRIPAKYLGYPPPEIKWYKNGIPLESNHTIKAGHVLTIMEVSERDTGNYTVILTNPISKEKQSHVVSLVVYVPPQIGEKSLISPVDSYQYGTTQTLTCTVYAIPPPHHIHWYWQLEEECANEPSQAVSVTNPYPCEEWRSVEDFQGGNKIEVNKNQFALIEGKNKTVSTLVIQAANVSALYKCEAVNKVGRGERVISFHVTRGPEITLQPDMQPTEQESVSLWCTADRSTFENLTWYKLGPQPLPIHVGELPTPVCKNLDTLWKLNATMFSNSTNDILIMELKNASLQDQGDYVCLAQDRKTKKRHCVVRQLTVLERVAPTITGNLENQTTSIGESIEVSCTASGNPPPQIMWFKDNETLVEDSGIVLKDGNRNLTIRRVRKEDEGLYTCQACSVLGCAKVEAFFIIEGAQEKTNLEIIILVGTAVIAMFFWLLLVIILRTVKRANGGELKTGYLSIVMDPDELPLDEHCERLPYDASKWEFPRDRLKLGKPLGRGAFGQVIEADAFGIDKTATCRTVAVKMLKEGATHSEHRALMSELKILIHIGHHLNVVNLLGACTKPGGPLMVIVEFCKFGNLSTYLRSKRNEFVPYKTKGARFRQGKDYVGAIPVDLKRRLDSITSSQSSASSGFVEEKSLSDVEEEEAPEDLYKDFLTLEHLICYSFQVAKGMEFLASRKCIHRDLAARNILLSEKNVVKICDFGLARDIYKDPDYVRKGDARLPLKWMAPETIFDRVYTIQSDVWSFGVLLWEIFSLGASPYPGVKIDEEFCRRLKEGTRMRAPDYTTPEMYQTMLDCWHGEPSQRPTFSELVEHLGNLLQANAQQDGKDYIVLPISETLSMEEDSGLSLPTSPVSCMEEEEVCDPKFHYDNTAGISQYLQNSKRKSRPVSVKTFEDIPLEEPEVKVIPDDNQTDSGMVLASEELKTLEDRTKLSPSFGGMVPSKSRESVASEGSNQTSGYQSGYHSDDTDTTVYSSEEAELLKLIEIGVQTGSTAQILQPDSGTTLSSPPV
# Experimental: as §1, §2, §3
# human FGFR1 = molecular target: T3, human FGFR1 (Homo sapiens, UniProt P11362); assay: 33P isotope-labeled kinase activity test (Reaction Biology Corp), FGFR1; format: biochemical; conditions: 33P-ATP 5 μM, kinase 1.5 nM, 120 min room temperature
# T3 construct: purchased Invitrogen PV3146
# T3 sequence (P11362 22-822): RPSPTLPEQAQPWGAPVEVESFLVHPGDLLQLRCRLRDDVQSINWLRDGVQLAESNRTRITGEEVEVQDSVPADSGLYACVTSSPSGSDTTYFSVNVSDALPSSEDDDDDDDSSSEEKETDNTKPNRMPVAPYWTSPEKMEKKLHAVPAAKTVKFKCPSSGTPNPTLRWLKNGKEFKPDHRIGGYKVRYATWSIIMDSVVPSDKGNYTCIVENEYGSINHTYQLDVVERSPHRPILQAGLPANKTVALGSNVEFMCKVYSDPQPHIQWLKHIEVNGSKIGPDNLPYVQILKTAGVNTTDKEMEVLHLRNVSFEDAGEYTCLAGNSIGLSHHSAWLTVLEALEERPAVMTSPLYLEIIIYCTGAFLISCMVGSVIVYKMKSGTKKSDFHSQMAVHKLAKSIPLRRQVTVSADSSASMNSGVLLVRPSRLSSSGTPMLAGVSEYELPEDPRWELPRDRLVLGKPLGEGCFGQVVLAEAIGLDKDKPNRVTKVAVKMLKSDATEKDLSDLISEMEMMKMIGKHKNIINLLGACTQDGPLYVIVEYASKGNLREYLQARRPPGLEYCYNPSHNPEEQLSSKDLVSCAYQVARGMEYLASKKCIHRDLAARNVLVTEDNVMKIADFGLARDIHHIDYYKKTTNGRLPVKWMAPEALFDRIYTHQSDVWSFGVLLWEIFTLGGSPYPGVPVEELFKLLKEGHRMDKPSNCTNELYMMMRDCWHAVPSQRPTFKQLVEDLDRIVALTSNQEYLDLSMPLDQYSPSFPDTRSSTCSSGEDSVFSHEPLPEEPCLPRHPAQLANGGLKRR
# Experimental: as §1, §2, §3
# T1 sequence (P21802 22-821): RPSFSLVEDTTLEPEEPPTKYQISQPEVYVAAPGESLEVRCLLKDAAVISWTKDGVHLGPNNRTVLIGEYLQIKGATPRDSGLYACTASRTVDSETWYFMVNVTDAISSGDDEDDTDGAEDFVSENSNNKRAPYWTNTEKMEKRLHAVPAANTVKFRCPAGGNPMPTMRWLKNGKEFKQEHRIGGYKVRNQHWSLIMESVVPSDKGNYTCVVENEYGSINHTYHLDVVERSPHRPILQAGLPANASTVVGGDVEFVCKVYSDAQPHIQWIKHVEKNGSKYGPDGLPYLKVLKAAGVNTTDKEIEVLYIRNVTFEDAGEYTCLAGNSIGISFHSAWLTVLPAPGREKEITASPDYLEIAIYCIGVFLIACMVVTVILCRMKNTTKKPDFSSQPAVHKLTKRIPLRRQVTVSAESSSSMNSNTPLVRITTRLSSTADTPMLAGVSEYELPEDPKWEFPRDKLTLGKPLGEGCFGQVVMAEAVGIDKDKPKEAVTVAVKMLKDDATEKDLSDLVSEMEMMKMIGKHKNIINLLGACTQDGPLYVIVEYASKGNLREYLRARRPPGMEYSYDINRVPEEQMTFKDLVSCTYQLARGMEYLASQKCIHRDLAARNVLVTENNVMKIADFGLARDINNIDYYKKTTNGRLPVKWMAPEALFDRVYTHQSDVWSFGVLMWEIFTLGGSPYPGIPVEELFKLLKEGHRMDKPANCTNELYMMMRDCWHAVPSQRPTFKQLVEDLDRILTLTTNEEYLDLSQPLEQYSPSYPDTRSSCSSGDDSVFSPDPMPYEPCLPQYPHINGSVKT
Compound,pIC50 (human FGFR2),other results
Cn1cc(-c2ccc3c(-c4cc(NS(=O)(=O)C5CC5)cc(-c5cccnc5F)c4)cnn3c2)cn1 [Trifluoroacetate salt of compound 10],7.44,
O=S(=O)(Nc1cc(-c2ccc(F)cc2F)cc(-c2cnn3cc(-c4cnn(C5CCNCC5)c4)ccc23)c1)C1CC1 [Hydrochloride salt of compound 51],8.90,
CS(=O)(=O)Nc1cc(-c2ncc(F)cc2F)cc(-c2cnn3cc(C4CC4)ccc23)c1 [Compound 35],7.31,
CCS(=O)(=O)Nc1cc(-c2ncc(F)cc2F)cc(-c2cnn3cc(-c4cnn(C)c4)ccc23)c1 [Trifluoroacetate salt of compound 33],8.92,pIC50 [1]: 8.21
CCS(=O)(=O)Nc1cc(-c2ccc(F)cc2F)cc(-c2cnn3cc(-n4cnc(C)n4)ccc23)c1 [Compound 17],6.85,
Cn1cc(-c2ccc3c(-c4cc(NCC5COC(C)(C)O5)cc(-c5ncc(F)cc5F)c4)cnn3c2)cn1 (stereo not shown) [Compound 48],9.02,pIC50 (human VEGFR2): 8.08
CS(=O)(=O)Nc1cc(-c2cnn3cc(-c4cnn(CCN5CCOCC5)c4)ccc23)cc(-c2ccc(F)cc2F)n1 [Trifluoroacetate salt of compound 29],8.40,
"Cn1cc(-c2ccc3c(c2)ncn3-c2cc(NS(=O)(=O)C3CC3)cc(-c3ccc(F)cc3F)c2)cn1 [Comparative example 1, reference compound]",,pIC50 [1]: 7.21
CS(=O)(=O)Nc1cc(-c2ncc(F)cc2F)cc(-c2cnn3cc(-c4cnn(C5CCNCC5)c4)ccc23)c1 [Hydrochloride salt of compound 37],9.74,
CCS(=O)(=O)Nc1cc(-c2ccc(F)cc2F)cc(-c2cnn3cc(-c4cnn(C)c4)ccc23)n1 [Compound 43],9.33,
CS(=O)(=O)Nc1cc(-c2ncc(F)cc2F)cc(-c2cnn3cc(-c4cnn(CC5COCCN5Cc5ccccc5)c4)ccc23)c1 (stereo not shown) [Compound 45],7.53,pIC50 (human VEGFR2): 7.95
Cn1cc(-c2ccc3c(-c4cc(-c5ccc(F)cc5F)cc(NS(=O)(=O)C5CC5)n4)cnn3c2)cn1 [Compound 42],8.97,
CS(=O)(=O)CCCn1cc(-c2ccc3c(-c4cc(NS(C)(=O)=O)cc(-c5ncc(F)cc5F)c4)cnn3c2)cn1 [Compound 40],9.11,pIC50 (human VEGFR2): 8.70
Cn1cc(-c2ccc3c(-c4cc(NC(=O)N5CCC(O)C5)cc(-c5ccc(F)cc5F)c4)cnn3c2)cn1 (stereo not shown) [Compound 25],7.40,pIC50 (human VEGFR2): 7.65
Cn1cnc(-c2ccc3c(-c4cc(NS(C)(=O)=O)cc(-c5ccc(F)cc5F)c4)cnn3c2)n1 [Compound 7],,pIC50 (human FGFR1): 6.87
CS(=O)(=O)Nc1cc(-c2ncc(F)cc2F)cc(-c2cnn3cc(-c4cnn(CC5COCCN5)c4)ccc23)c1 (stereo not shown) [Compound 44],9.14,pIC50 (human VEGFR2): 8.85
Cn1cc(-c2ccc3c(-c4cc(NCC5COC(C)(C)O5)cc(-c5ccc(F)cc5F)c4)cnn3c2)cn1 (stereo not shown) [Compound 52],8.18,pIC50 (human VEGFR2): 7.67
Cn1cc(-c2ccc3c(-c4cc(NS(=O)(=O)C5CC5)cc(-c5ccc(F)nc5)c4)cnn3c2)cn1 [Trifluoroacetate salt of compound 9],7.13,

Compound,pIC50 (human FGFR2),other results
Cn1cc(-c2ccc3c(-c4cc(NCC(C)(C)O)cc(-c5ncc(F)cc5F)c4)cnn3c2)cn1 [Compound 49],8.64,
CN1CCC(n2cc(-c3ccc4c(-c5cc(NS(C)(=O)=O)cc(-c6ncc(F)cc6F)c5)cnn4c3)cn2)CC1 [Compound 36],9.64,
CC(C)(O)Cn1cc(-c2ccc3c(-c4cc(NS(C)(=O)=O)cc(-c5ncc(F)cc5F)c4)cnn3c2)cn1 [Compound 31],8.75,
Cn1cc(-c2ccc3c(-c4cc(NS(=O)(=O)C5CC5)nc(-c5ccc(F)cc5F)c4)cnn3c2)cn1 [Compound 14],,pIC50 (human FGFR1): 7.99
CS(=O)(=O)Nc1cc(-c2ncc(F)cc2F)cc(-c2cnn3cc(-c4cnn(CC5COCCO5)c4)ccc23)c1 (stereo not shown) [Compound 39],9.02,pIC50 (human VEGFR2): 9.18
Cn1cc(-c2ccc3c(-c4cc(NS(=O)(=O)C5CC5)cc(-c5ncc(F)cc5F)c4)cnn3c2)cn1 [Trifluoroacetate salt of compound 11],9.12,pIC50 [1]: 7.98; pIC50 (human VEGFR2): 9.22
CC(C)Nc1cc(-c2ccc(F)cc2F)cc(-c2cnn3cc(-c4cnn(C)c4)ccc23)c1 [Compound 6],,pIC50 (human FGFR1): 7.77
Cn1cc(-c2ccc3c(-c4cc(NCC(O)CO)cc(-c5ncc(F)cc5F)c4)cnn3c2)cn1 (stereo not shown) [Compound 50],8.98,pIC50 (human VEGFR2): 8.42
Cc1ncn(-c2ccc3c(-c4cc(NS(=O)(=O)C5CC5)cc(-c5ccc(F)cc5F)c4)cnn3c2)n1 [Compound 16],6.51,
CS(=O)(=O)Nc1cc(-c2ncc(F)cc2F)cc(-c2cnn3cc(-c4cnn(CC(O)CO)c4)ccc23)c1 (stereo not shown) [Compound 34],9.38,pIC50 (human VEGFR2): 9.54
Cn1cc(-c2ccc3c(-c4cc(NS(=O)(=O)C5CC5)cc(-c5ccc(F)nc5F)c4)cnn3c2)cn1 [Compound 8],7.19,
Cn1cc(-c2ccc3c(-c4cc(NCC(O)CO)cc(-c5ccc(F)cc5F)c4)cnn3c2)cn1 (stereo not shown) [Compound 53],8.25,pIC50 (human VEGFR2): 8.44
CS(=O)(=O)Nc1cc(-c2ncc(F)cc2F)cc(-c2cnn3cc(-c4cnn(CCN5CCOCC5)c4)ccc23)c1 [Compound 38],9.14,
Cn1cc(-c2ccc3c(-c4cc(NS(C)(=O)=O)cc(-c5ccc(F)cc5F)c4)cnn3c2)nn1 [Compound 26],,pIC50 [1]: 8.11
CCS(=O)(=O)Nc1cc(-c2cnn3cc(-c4cnn(C)c4)ccc23)cc(-c2ccc(F)cc2F)n1 [Compound 13],8.53,
Cn1cc(-c2ccc3c(-c4cc(NC(=O)NC5CC5)cc(-c5ccc(F)cc5F)c4)cnn3c2)cn1 [Compound 23],8.73,
CC(=O)Nc1cc(-c2ccc(F)cc2F)cc(-c2cnn3cc(-c4cnn(C)c4)ccc23)c1 [Compound 3],,pIC50 (human FGFR1): 8.63
O=S(=O)(Nc1cc(-c2ncc(F)cc2F)cc(-c2cnn3cc(-c4cnn(C5CCNCC5)c4)ccc23)c1)C1CC1 [Hydrochloride salt of compound 47],9.35,

# Second part, led by results:
pIC50 (human FGFR2),Compound,other results
8.74,Cn1cc(-c2ccc3c(-c4cc(-c5ccc(F)cc5F)cc(NS(C)(=O)=O)n4)cnn3c2)cn1 [Compound 41],
9.64,CN(C)CCn1cc(-c2ccc3c(-c4cc(NS(C)(=O)=O)cc(-c5ccc(F)cc5F)c4)cnn3c2)cn1 [Compound 20],pIC50 [1]: 8.12
7.05,Cc1ncn(-c2ccc3c(-c4cc(NS(C)(=O)=O)cc(-c5ccc(F)cc5F)c4)cnn3c2)n1 [Compound 19],
8.70,Cn1cc(-c2ccc3c(-c4cc(NS(C)(=O)=O)cc(-c5ccc(F)cc5F)c4)cnn3c2)nn1 [Trifluoroacetate salt of compound 26],pIC50 (human VEGFR2): 8.56
8.00,CONC(=O)Nc1cc(-c2ccc(F)cc2F)cc(-c2cnn3cc(-c4cnn(C)c4)ccc23)c1 [Compound 24],
8.59,Cn1cnc(-c2ccc3c(-c4cc(NS(C)(=O)=O)cc(-c5ccc(F)cc5F)c4)cnn3c2)c1 [Trifluoroacetate salt of compound 27],pIC50 [1]: 7.94
8.43,Cn1cc(-c2ccc3c(-c4cc(NS(C)(=O)=O)nc(-c5ccc(F)cc5F)c4)cnn3c2)cn1 [Compound 12],
6.54,CS(=O)(=O)Nc1cc(-c2ccc(F)cc2F)cc(-c2cnn3cc(-c4ncn(C5CCOCC5)n4)ccc23)c1 [Compound 15],
7.97,Cn1cc(-c2ccc3c(-c4cc(NCC(C)(C)O)cc(-c5ccc(F)cc5F)c4)cnn3c2)cn1 [Compound 54],
6.59,CS(=O)(=O)Nc1cc(-c2ccc(F)cc2F)cc(-c2cnn3cc(-c4ncn(CCO)n4)ccc23)c1 [Compound 18],
9.24,CS(=O)(=O)Nc1cc(-c2ccc(F)cc2F)cc(-c2cnn3cc(-c4cnn(C5CCNCC5)c4)ccc23)c1 [Hydrochloride salt of compound 21],pIC50 [1]: 8.02
9.52,CN1CCC(n2cc(-c3ccc4c(-c5cc(NS(C)(=O)=O)cc(-c6ccc(F)cc6F)c5)cnn4c3)cn2)CC1 [Compound 30],
6.44,Cn1nccc1-c1ccc2c(-c3cc(NS(C)(=O)=O)cc(-c4ccc(F)cc4F)c3)cnn2c1 [Compound 28],
8.96,Cn1cc(-c2ccc3c(-c4cc(NS(C)(=O)=O)cc(-c5ncc(F)cc5F)c4)cnn3c2)cn1 [Trifluoroacetate salt of compound 32],
8.36,CS(=O)(=O)Nc1cc(-c2ccc(F)cc2F)cc(-c2cnn3cc(-c4cnn(CC(O)CO)c4)ccc23)c1 (stereo not shown) [Compound 22],pIC50 [1]: 7.55; pIC50 (human VEGFR2): 8.73

# Source: patent US12325703B2, “Fused ring compound as FGFR and VEGFR dual inhibitor” (CGENETECH (SUZHOU, CHINA) CO., LTD., priority 2019, dated 2025)
